In US8258186B2, “Pharmaceutical for oral delivery comprising MGBG” (Pathologica, LLC, priority 2009, dated 2012):

How the values were obtained:
[1] = Rhesus macaque single-dose pharmacokinetics; type: in vivo, rhesus monkeys
Procedure: Two groups of three male rhesus monkeys were fasted overnight before being administered the test article, MGBG, as either a single bolus intravenous dose of 1 mg/kg (Group 1) or as a single oral gavage dose of 10 mg/kg (Group 2). Dose formulation analysis verified administered dose solutions as within 14% of targeted concentrations of 1 and 10 mg/kg for Groups 1 and 2, respectively.
Blood samples were collected into tubes containing lithium heparin from the femoral vein/artery (approximately 1.0 mL) for plasma MGBG concentration measurement from all intravenously dosed animals prior to dosing and at approximately T=0.083 (5 min), 0.25 (15 min), 0.5 (30 min), 1, 2, 4, 8, and 24 hours after dosing. Blood samples for plasma MGBG concentration measurement were collected from all orally dosed animals prior to dosing at approximately T=1, 2, 4, 8, 12, 24, and 36 hours after dosing. Food was also withheld through the first four hours of blood sample collection.
The samples were centrifuged under refrigerated conditions following completion of sample collection at each interval. The resulting plasma was separated and stored frozen at approximately −70° C. until analysis.
PK analysis was performed on the individual plasma concentration-time profiles for MGBG using the WinNonlin non-compartmental approach (linear trapezoidal rule for AUC calculations). Nominal dose values and sampling times were used for calculations. All MGBG plasma concentration measurements reported as BQL (<2.51 ng/mL) were set equal to zero for the purpose of analysis. Following IV and PO administration of MGBG, plasma PK disposition parameters were calculated using the WinNonlin default selection criteria for the selection of the Lambda Z.
Consequently, a model-dependent two-compartmental analysis was used to calculate bioavailability.

[2] = Rat single-dose pharmacokinetics; type: in vivo, Sprague Dawley rats
Procedure: Eighteen male Sprague Dawley rats (Charles River) weighing 217-263 g and aged 8-9 weeks were administered the test article, MGBG as either a single bolus intravenous dose of 1 mg/kg (Group 1) or as a single oral gavage dose of 10 mg/kg. A cohort of three animals was sacrificed via CO2 inhalation anaesthesia after final blood collection at each of T=2, 4, 12, 24, 36, and 48 hours post-dose. Dose formulation analysis verified administered dose solutions as within 17% of targeted concentration of 10 mg/kg.
Analysis was performed by LC/MS/MS. Pharmacokinetic analyses were performed on the mean MGBG plasma concentration versus time data using the non-compartmental approach (linear trapezoidal rule for AUC calculations). The WinNonlin sparse sampling tool was used for PK calculations. All samples reported as BQL (Below the Limit of Quantitation, in plasma 2.50 ng/mL) were changed to 0.00 ng/mL for the purpose of analysis.

[3] = Mouse single-dose pharmacokinetics; type: in vivo, DBA/1 mice; conditions: for AUC / Cmax: plasma
Procedure: Twenty-four male DBA/1 mice weighing 19.5-24.7 g and aged 7-9 weeks administered the test article, MGBG, as either a single bolus intravenous dose via a lateral tail vein of 1 mg/kg (Group 1, n=12) or as a single oral gavage dose of 10 mg/kg (Group 2, n=12). Each dose group consisted of 4 cohorts of 3 animals each. Group 1 was sampled at 5, 15, and 30 minutes after dosing; and 1, 2, 4, 8, and 24 hours after dosing. Group 2 was sampled at 1, 2, 4, 8, 12, 24, and 36 hours after dosing. Starting with the first time point, a new cohort was sampled at each successive time point up to the 1-hour (Group 1) or 12-hour (Group 2) time point. The order of sampling among the cohorts was repeated for the subsequent time points (some cohorts may have been bled only once). The second bleed for each cohort was terminal. Animals were sacrificed via CO2 inhalation anaesthesia after final blood collection.
The samples were centrifuged under refrigerated conditions following completion of sample collection at each interval. The resulting plasma was separated and stored frozen at approximately −70° C. until analysis. Analysis was performed by LC/MS/MS. Pharmacokinetic analyses were performed on the mean MGBG plasma concentration versus time data using the non-compartmental approach (linear trapezoidal rule for AUC calculations). The WinNonlin sparse sampling tool was used for PK calculations.

[4] = Multi-species allometric scaling, predicted pharmacokinetic parameters in humans; conditions: predicted human, based on Mouse, Dog, Rhesus
From the text: Multi-species allometric scaling based on pharmacokinetic parameters disclosed in Tables 2 and 3 was employed to calculate predicted pharmacokinetic parameters in humans according to methods known in the art. See, e.g., Ings R M, “Interspecies scaling and comparisons in drug development and toxicokinetics,” Xenobiotica, 1990 November; 20(11):1201-31 and Khor, S P et al., “Dihydropyrimidine dehydrogenase inactivation and 5-fluorouracil pharmacokinetics: allometric scaling of animal data, pharmacokinetics and toxicodynamics of 5-fluorouracil in humans,” Cancer Chemother Pharmacol (1997) 39(3): 833-38. Expected values are given below in Tables 6 and 7.

[5] = following IV and PO administration
[6] = male, rhesus monkey, plasma, single bolus IV 1 mg/kg, mean
[7] = male, rhesus monkey, plasma, single oral gavage 10 mg/kg, mean
[8] = male, rhesus monkey, single bolus IV 1 mg/kg, plasma, mean
[9] = male, rhesus monkey, single oral gavage 10 mg/kg, plasma, mean
[10] = single oral gavage 10 mg/kg, mean
[11] = male, Sprague Dawley, plasma, single bolus IV 1 mg/kg, mean
[12] = male, Sprague Dawley, plasma, single oral gavage 10 mg/kg, mean
[13] = male, Sprague Dawley, single bolus IV 1 mg/kg, plasma, mean
[14] = male, DBA/1, plasma, single bolus IV 1 mg/kg, mean
[15] = male, DBA/1, plasma, single oral gavage 10 mg/kg, mean
[16] = male, DBA/1, single bolus IV 1 mg/kg, mean
[17] = male, DBA/1, single oral gavage 10 mg/kg, mean

For CC(/C=N/NC(=N)N)=N\NC(=N)N [MGBG, 1,1′[methylethanediylidene]dinitrilodiguanidine], the “systemic plasma MGBG exposure” value [1, 5] was “observed at all collected plasma time points”, the bioavailability ([1]; male, rhesus monkey, plasma, oral 10 mg/kg vs IV 1 mg/kg, two-compartmental analysis used) was 35% and the Tmax [1, 6] was 0.139 h. The half-life [1, 6] was 30.8 h, the Tmax [1, 7] was 3.33 h and the half-life [1, 7] was 24.2 h. The AUC [1, 8] was 1660 ng·h/mL, the Cmax [1, 8] was 757 ng/mL and the AUC [1, 9] was 4240 ng·h/mL. The Cmax [1, 9] was 192 ng/mL, the Clobs ([1]; single bolus IV 1 mg/kg, mean) was 13.7 mL/min/kg and the VSSobs ([1]; single bolus IV 1 mg/kg, mean) was 13.2 L/kg. The Clobs [1, 10] was 6.63 mL/min/kg, the clinical findings ([2]; following dosing) was “Abnormal clinical findings were not noted” and the bioavailability ([2]; male, Sprague Dawley, plasma, oral 10 mg/kg vs IV 1 mg/kg) was 11.6%. The Tmax [2, 11] was 0.083 h, the half-life [2, 11] was 17.4 h and the Tmax [2, 12] was 4.67 h. The half-life [2, 12] was 28.1 h, the AUC [2, 13] was 1250 ng·h/mL and the Cmax [2, 13] was 684 ng/mL. For the same molecule, the AUC ([2]; male, Sprague Dawley, single oral gavage 10 mg/kg, AUCall, time zero to last plasma concentration measurement) was 1280 ng·h/mL, the Cmax ([2]; male, Sprague Dawley, single oral gavage 10 mg/kg, plasma, mean) was 55.8 ng/mL and the “time point through which MGBG levels in plasma were measurable” value ([2]; single PO 10 mg/kg, beyond that certain samples BLQ) was 12 h. The Clobs ([2]; single bolus IV 1 mg/kg, mean) was 13.4 mL/min/kg, the VSSobs ([2]; single bolus IV 1 mg/kg, mean) was 15.4 L/kg and the Clobs [2, 10] was 3.18 mL/min/kg. For the same molecule, the “systemic plasma MGBG exposure” value [3, 5] was “observed at all collected plasma time points”, the clinical findings ([3]; following dosing) was “Abnormal clinical findings were not noted” and the bioavailability ([3]; male, DBA/1, plasma, oral 10 mg/kg vs IV 1 mg/kg) was 44.3%. The Tmax [3, 14] was 0.083 h, the half-life [3, 14] was 13 h and the Tmax [3, 15] was 1 h. For the same molecule, the half-life [3, 15] was 11.8 h, the AUC [3, 16] was 336 ng·h/mL and the Cmax [3, 16] was 181 ng/mL. The AUC [3, 17] was 1420 ng·h/mL, the Cmax [3, 17] was 106 ng/mL and the Clobs ([3]; single bolus IV 1 mg/kg, mean) was 49.6 mL/min/kg. The VSSobs ([3]; single bolus IV 1 mg/kg, mean) was 38.3 L/kg, the Clobs [3, 10] was 6.68 mL/min/kg and the VSS ([4]; IV) was 9.1 L/kg. For the same molecule, the t1/2 ([4]; IV) was 13.3 h, the t1/2 ([4]; IV, Rat) was 13.4 h and the CL ([4]; ORAL) was 20.9 mL/min/kg. The t1/2 ([4]; ORAL) was 23.0 h and the t1/2 ([4]; ORAL, Rat) was 23.3 h.
